Tests used:
[1] = system: AEA cellular uptake in HMC-1 cells; assay: cells; assay type: cell-based, human; conditions: read-out: AEA reuptake IC50 (95% CI) HMC-1 cells; FAAH-deficient cells
[2] = system: Na+ channel (site 2); assay type: binding; conditions: 10 µM
[3] = biological target: T1, hCB1R (Homo sapiens, UniProt P21554); assay: cell-based; assay type: cell-based
T1 construct: host or cells: CHO

[4] = system: Ca2+ channel (L, diltiazem site); assay: CEREP panel; assay type: binding; conditions: 10 µM
[5] = biological target: T2, Human recombinant TRPV1 (Homo sapiens, UniProt Q8NER1); assay: cell-based; assay type: cell-based
T2 construct: expressed in transfected cells; host or cells: HEK293 (TRPV1-HEK-293, gift from John Davis, GlaxoSmithKline)
T2 sequence (Q8NER1 whole entry): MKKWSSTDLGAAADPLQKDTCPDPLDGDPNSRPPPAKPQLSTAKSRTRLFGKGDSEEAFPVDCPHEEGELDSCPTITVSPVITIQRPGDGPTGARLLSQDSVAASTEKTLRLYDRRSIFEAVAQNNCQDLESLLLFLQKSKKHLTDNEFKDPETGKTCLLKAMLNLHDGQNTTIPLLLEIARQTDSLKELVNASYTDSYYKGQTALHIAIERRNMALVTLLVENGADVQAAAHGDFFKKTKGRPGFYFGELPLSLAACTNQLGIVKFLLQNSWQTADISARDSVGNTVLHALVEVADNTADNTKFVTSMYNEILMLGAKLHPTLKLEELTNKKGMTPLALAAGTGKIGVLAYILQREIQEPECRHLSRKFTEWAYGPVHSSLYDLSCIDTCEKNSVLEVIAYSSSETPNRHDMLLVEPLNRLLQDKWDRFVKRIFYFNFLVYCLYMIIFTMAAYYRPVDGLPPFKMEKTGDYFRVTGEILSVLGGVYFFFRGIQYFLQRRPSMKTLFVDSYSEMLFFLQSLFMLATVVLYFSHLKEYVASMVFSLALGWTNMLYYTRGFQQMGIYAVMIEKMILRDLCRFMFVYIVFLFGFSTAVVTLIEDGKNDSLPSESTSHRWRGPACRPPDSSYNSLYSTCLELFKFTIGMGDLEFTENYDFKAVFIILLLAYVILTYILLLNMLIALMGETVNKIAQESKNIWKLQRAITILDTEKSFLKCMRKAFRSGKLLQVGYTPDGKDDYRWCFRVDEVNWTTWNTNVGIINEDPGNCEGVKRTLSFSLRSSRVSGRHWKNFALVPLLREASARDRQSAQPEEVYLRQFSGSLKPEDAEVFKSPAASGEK

[6] = system: PCP; assay type: binding; conditions: 10 µM
[7] = biological target: T1, hCB1R; assay: cell-based; assay type: cell-based; remark: listed apart in the source
[8] = biological target: T3, Rat recombinant TRPM8 (Rattus norvegicus, UniProt Q8R455); assay: TRP channel [Ca2+]i assay; assay type: cell-based; conditions: vs icilin […]; read-out: TRPM8 IC50 for antagonism of icilin
T3 construct: expressed in transfected cells; host or cells: HEK293 (TRPM8-HEK-293, gift from Mario van der Stelt)

[9] = biological target: T4, N muscle-type (h) (Homo sapiens, UniProt P02708+P07510+P11230+Q07001); assay: CEREP panel; assay type: binding; conditions: 10 µM
T4 construct: CEREP (contract assay)
T4 sequence (P02708 21-457): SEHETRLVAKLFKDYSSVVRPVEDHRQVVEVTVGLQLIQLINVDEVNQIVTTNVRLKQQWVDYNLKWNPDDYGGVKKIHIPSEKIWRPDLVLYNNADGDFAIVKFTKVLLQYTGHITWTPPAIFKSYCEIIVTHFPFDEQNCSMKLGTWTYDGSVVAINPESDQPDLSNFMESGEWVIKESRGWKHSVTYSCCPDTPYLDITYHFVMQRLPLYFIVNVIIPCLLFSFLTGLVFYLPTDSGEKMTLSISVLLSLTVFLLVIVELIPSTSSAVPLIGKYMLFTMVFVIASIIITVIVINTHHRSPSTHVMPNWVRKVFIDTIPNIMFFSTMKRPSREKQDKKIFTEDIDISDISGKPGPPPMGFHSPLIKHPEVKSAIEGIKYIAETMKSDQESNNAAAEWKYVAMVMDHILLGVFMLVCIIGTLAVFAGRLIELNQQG
T4 sequence (P11230 24-501): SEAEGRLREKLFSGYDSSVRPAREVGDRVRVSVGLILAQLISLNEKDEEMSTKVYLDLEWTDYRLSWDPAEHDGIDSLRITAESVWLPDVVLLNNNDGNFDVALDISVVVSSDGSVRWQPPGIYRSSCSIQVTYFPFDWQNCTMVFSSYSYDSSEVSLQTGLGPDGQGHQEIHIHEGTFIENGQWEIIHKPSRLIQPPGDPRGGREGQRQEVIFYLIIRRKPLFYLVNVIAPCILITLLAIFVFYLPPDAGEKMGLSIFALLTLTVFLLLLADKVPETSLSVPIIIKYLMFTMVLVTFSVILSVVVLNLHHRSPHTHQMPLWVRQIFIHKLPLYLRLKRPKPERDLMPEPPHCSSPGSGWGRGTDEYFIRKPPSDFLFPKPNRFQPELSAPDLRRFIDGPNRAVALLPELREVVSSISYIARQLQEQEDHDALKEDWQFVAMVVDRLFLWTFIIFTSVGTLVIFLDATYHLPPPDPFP
T4 sequence (Q07001 22-517): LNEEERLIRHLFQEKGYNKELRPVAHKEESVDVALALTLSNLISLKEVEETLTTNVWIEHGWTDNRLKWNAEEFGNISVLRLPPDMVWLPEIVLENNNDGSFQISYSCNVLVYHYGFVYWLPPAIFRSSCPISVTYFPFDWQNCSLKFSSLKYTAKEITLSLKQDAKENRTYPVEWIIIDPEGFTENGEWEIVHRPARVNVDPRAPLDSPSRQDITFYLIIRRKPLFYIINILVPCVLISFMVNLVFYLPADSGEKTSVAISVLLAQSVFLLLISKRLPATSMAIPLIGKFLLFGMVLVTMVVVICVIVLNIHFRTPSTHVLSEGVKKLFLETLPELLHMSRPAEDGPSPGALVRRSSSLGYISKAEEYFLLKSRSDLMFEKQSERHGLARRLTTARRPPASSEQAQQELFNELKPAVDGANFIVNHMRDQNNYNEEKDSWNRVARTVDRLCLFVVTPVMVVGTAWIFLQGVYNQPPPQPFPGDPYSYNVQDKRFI
T4 sequence (P07510 23-517): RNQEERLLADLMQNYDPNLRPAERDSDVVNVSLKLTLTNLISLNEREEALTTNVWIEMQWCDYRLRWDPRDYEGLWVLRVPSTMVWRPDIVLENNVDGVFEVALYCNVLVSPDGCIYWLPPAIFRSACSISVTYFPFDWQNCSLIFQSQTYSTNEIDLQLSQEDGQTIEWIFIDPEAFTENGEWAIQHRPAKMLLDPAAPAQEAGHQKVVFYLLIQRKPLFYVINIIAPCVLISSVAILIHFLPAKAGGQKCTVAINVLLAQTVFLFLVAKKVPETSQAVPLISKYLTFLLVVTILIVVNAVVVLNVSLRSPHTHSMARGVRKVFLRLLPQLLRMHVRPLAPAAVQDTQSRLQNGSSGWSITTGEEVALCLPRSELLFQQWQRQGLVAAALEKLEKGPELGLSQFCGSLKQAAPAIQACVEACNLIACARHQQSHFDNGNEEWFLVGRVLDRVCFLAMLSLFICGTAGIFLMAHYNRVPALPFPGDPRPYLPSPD

[10] = logD distribution coefficient; conditions: distribution coefficient
[11] = 1 μM
[12] = i.v., mice
[13] = biological target: T5, mCB1R (Mus musculus, UniProt P47746); assay: biochemical; assay type: binding; conditions: mouse brain membranes
T5 construct: from tissue; host or cells: brain of male C57BL/6J mice
T5 sequence (P47746 whole entry): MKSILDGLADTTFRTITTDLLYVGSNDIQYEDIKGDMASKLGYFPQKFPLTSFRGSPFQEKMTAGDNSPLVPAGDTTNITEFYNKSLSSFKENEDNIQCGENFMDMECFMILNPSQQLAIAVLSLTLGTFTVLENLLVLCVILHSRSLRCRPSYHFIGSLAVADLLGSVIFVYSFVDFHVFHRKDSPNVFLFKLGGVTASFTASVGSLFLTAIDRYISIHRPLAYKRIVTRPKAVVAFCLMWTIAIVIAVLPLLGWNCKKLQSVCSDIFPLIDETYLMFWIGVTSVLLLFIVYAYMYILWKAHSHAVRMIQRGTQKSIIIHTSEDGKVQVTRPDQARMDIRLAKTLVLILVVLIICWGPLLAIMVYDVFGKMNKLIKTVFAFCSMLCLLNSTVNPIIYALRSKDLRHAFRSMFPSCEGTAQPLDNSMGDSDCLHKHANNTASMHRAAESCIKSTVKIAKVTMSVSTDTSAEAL

[14] = biological target: T6, norepinephrine transporter (h) (Homo sapiens, UniProt P23975); assay: biochemical; assay type: binding; conditions: 10 µM
T6 construct: CEREP (contract assay)
T6 sequence (P23975 whole entry): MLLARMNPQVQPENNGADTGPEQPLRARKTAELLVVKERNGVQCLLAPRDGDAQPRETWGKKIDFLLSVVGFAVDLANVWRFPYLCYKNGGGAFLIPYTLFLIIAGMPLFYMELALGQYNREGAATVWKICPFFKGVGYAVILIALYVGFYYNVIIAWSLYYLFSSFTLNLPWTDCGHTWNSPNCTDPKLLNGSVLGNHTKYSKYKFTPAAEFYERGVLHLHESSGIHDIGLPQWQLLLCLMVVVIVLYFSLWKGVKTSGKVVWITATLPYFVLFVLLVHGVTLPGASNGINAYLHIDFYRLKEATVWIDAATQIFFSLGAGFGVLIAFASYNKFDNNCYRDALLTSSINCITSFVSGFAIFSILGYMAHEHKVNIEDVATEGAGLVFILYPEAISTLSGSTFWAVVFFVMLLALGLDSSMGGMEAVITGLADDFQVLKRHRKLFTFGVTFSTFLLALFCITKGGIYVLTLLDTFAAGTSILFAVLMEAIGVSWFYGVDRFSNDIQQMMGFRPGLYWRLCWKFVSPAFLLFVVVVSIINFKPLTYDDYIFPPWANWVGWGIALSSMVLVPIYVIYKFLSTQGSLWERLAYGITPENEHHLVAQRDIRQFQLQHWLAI

[15] = system: AEA cellular uptake in U937 cells; assay: cells; assay type: cell-based, human
[16] = biological target: hCB2R (Homo sapiens, UniProt P34972); design: expressed in transfected cells; host or cells: Flp-In-293 (Invitrogen #R750-07), pcDNA5/FRT; conditions: hCB2R
Chain of hCB2R (P34972 whole entry): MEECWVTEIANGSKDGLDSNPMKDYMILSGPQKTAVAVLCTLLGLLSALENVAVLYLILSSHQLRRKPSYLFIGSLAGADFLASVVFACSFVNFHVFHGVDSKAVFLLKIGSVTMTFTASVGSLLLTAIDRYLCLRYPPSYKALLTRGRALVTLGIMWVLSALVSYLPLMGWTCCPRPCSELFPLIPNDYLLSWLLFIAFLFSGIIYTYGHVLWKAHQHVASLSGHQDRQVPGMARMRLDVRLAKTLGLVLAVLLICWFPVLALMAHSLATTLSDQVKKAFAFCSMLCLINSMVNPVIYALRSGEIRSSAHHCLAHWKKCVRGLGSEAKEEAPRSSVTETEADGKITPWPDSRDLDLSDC

[17] = biological target: T1, hCB1R; assay: biochemical; assay type: biochemical
[18] = biological target: T7, PPARgamma (h) (Homo sapiens, UniProt P37231); assay: CEREP panel; assay type: binding; conditions: 10 µM
T7 construct: CEREP (contract assay)
T7 sequence (P37231 1-505): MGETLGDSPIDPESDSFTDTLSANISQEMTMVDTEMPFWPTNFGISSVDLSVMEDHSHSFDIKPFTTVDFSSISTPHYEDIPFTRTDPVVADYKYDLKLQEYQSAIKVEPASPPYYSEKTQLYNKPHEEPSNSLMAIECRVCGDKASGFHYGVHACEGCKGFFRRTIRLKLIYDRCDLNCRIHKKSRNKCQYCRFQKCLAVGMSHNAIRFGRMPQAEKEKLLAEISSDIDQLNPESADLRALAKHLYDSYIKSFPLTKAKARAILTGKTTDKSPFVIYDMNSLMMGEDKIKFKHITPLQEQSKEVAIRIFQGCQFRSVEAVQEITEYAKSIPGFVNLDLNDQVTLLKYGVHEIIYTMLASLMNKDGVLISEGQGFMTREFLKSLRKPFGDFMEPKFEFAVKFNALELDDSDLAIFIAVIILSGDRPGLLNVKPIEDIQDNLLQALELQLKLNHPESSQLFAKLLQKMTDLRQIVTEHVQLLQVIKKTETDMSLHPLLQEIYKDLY

[19] = 1 μM; remark: listed apart in the source
[20] = biological target: T1, hCB1R; assay: biochemical; assay type: binding; conditions: CHO membranes; Leiden, HU210 and SR144528 from Roche
[21] = biological target: T8, MT3 (ML2) (Mesocricetus auratus, UniProt A0ABM2YAB8); assay: CEREP panel; assay type: binding; conditions: 10 µM
T8 construct: CEREP (contract assay)
T8 sequence (A0ABM2YAB8 1-231): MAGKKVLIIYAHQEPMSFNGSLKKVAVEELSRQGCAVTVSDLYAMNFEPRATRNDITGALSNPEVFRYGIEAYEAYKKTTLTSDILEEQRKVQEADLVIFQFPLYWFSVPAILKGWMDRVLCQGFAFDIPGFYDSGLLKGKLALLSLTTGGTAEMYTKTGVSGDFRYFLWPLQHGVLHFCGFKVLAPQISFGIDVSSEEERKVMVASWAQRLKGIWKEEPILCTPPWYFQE

T1 sequence (P21554 whole entry): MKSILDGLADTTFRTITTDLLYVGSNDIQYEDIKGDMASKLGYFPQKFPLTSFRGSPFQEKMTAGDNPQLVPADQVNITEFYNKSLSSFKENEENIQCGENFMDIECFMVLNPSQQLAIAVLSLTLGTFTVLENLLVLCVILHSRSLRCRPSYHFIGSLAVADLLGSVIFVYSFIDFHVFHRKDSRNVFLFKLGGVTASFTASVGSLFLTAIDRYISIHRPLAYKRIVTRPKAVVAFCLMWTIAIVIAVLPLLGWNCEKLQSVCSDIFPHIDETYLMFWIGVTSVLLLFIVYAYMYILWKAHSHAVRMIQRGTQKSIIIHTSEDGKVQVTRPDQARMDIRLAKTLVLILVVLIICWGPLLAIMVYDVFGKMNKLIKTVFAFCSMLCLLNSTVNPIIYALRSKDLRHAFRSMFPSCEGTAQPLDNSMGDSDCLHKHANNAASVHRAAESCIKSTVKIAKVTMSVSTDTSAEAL

CN1CCCC[C@H]1Cn1cc(C(=O)c2cc([N+](=O)[O-])ccc2I)c2ccccc21 [(S)-AM1241]
IC50 [1]: > 5 µM | % inhibition Na+ channel (site 2) [2]: 87% | Emax ± SEM pERK hCB1R [3]: 17 ± 3 | pEC50 ± SEM pERK hCB1R [3]: < 4 | % inhibition Ca2+ channel (L, diltiazem site) [4]: 90% | TRPV1 Efficacy (% ionomycin 4μM) [5]: 12.0% | IC50 ([5]; read-out: TRPV1 IC50 for antagonism or desensitization): > 50 µM | EC50 ([5]; read-out: TRPV1 Potency EC50): > 50 µM | % inhibition PCP [6]: 2% | Emax ± SEM β-AR recruitment hCB1R [7]: 2 ± 1 | pEC50 ± SEM β-AR recruitment hCB1R [7]: < 5 | IC50 [8]: > 50 µM | % inhibition N muscle-type (h) [9]: 38% | logD [10]: 3.64 | CL hepatocytes mouse [11]: 251 µL/min/mio cells | AUCinf [12]: 276 ng·h/mL | AUCinf/dose [12]: 145 kg·ng·h/mL/mg | AUClast [12]: 269 ng·h/mL | CL [12]: 115 mL/min/kg | T1/2 [12]: 1.4 h | C0 ([12]; 1.0-2.0 mg/kg, extrapolated): 413 ng/mL | pKi ± SEM mCB1R [13]: 6.48 ± 0.08 | % inhibition norepinephrine transporter (h) [14]: 26% | AEA reuptake Efficacy (% inhibition) U937 cells ([15]; from dose-response): 97% | IC50 ([15]; read-out: AEA reuptake IC50 (95% CI) U937 cells): 3.7 µM | GIRK-GTPγS bias factor (BF) [16]: 0.16 | GIRK-GTPγS ΔΔlogR [16]: -0.79 | LogR GIRK [16]: 5.70 | LogR GTPγS [16]: 6.9 | LogR pERK [16]: 7.54 | LogR β-AR [16]: 5.97 | pERK-GIRK bias factor (BF) [16]: 4.72 | pERK-GIRK ΔΔlogR [16]: 0.68 ± 0.37 | pERK-GTPγS bias factor (BF) [16]: 0.77 | pERK-GTPγS ΔΔlogR [16]: -0.11 | β-AR-GIRK bias factor (BF) [16]: 0.43 | β-AR-GIRK ΔΔlogR [16]: -0.37 ± 0.33 | β-AR-GTPγS bias factor (BF) [16]: 0.07 | β-AR-GTPγS ΔΔlogR [16]: -1.16 ± 0.57 | β-AR-pERK bias factor (BF) [16]: 0.09 | β-AR-pERK ΔΔlogR [16]: -1.05 ± 0.44 | ΔLogR GIRK ([16]; reference CP55940): -2.17 | ΔLogR GTPγS ([16]; reference CP55940): -1.38 | ΔLogR pERK ([16]; reference CP55940): -1.49 | ΔLogR β-AR ([16]; reference CP55940): -2.54 | RE GIRK ([16]; relative effectiveness): 0.01 | RE GTPγS ([16]; relative effectiveness): 0.04 | RE pERK ([16]; relative effectiveness): 0.03 | RE β-AR ([16]; relative effectiveness): 0.003 | pEC50 ± SEM GTPγS hCB1R [17]: < 5 | % inhibition PPARgamma (h) [18]: 23% | CL microsomes human [19]: 152 µL/min/mg protein | pKi ± SEM hCB1R [20]: < 5 | % inhibition MT3 (ML2) [21]: 49%

Source: publication PMC5216056 (Nature Communications, 2017)
